Results from US20250163459A1, “IMPROVED CELL LINES AND METHODS FOR THE PRODUCTION OF ADENO-ASSOCIATED VECTORS” (CEVEC PHARMACEUTICALS GMBH, priority 2022, published 2025).

Assays:
Type in all cases: cell-based, human
CAP cells [1] = test: Encapsidated host cell DNA in AAV particles, ALU qPCR, CAP-derived producer cells; conditions: for encapsidated hcDNA: 30 μM and 60 μM, compared to vehicle treated controls (DMSO)
Procedure: (§1) At different time points post transfection, cell suspension was harvested, and cells were lysed by addition of Triton-X 100 (Sigma). After centrifugation, supernatants were diluted and incubated with TurboDNase (ThermoFisher Scientific), in order to remove non-encapsidated DNA contaminants. After inactivation of TurboDNAse, proteinase K was added to digest the viral capsid and subsequently amplify viral genomic DNA or hcDNA via ddPCR or qPCR.
(§2) The following primer/dual-labelled probe combinations (ordered at MWG, Eurofins and IDT, respectively, Table 1) directed against • a) the SV40 PolyA (quantification of viral titer) or • b) Alu sequences (quantification of hcDNA) • were used:
(§3) As standard for the viral genome, linearized transgene plasmid with a defined copy number was used. As standard for the hcDNA assay previously isolated CAP and HEK293 DNA (purified with DNeasy® Blood & Tissue Kit) was used.
AAV samples were treated with Turbo DNAse (Thermo Fischer Scientific) to digest the non-encapsidated DNA before the capsids were digested using Proteinase K. Proteinase K was inactivated by a heating step at 95° C. for 15 min. The samples were measured either by qPCR or ddPCR as follows:
The qPCR reaction contained the following components: 2×Brilliant Multiplex qPCR Master Mix (Agilent), nuclease-free H2O (Thermo Fisher Scientific), primer/probe mix and sample/standard. qPCR was run on an LightCycler 480 according to the manufacturer's instructions.
(§4) • Z-VAD-fmk inhibits caspases 3 and 8 which are upstream of the apoptotic nucleases DFF40 and ENDOG, respectively. • Z-VAD-fmk treatment should therefore reduce chromosomal fragmentation and decrease amount of packageably sized AAV cargo. • Transiently transfected CAP cells and HEK293 cells or full producers were cultured to produce AAV in the presence of absence of Z-VAD-fmk. • Resulting AAV particles were harvested from cell suspension on days 1, 2, 3, and 4 post induction. • Encapsidated host cell DNA was measured using a dedicated qPCR assay amplifying ALU repeats. • DNA fragmentation was determined using the DNA fragmentation assay by Chemometec.

CAP cell line = test: Viable cell density and viability of induced AAV producer cells; conditions: for viable cell density and viability: induced AAV producer cells, versus untreated cells, Camptothecin 10 μM
Procedure: During routine cultivation, cells were diluted with fresh medium to a viable cell density of 0.5-1×10^6 cells/ml every 72 to 96 h. Viable cell density and viability were determined by trypan blue exclusion using a Vi-Cell Blu cell counter (Beckman Coulter).
• Various stable and transient AAV producer cells were induced with doxycycline and treated with different concentrations of the antiapoptotic pan-caspase inhibitor Z-VAD-fmk. • Cell viability was evaluated using the NucleoCounter NC-3000.

CAP cells [2] = test: Sub-G1 DNA fragmentation assay (Chemometec, NucleoCounter NC-3000); conditions: during vector production; Camptothecin 10 μM over night on parental CAP cells
Excerpt: A DNA fragmentation assay by Chemometec was applied using the NucleoCounter® NC-3000™ according to note No. 3003. Rev. 1.4.
In brief, cells were permeabilized with Ethanol, which allows low molecular weight DNA fragments (e.g., apoptotic DNA) to leak out, while large fragments and undamaged chromosomes are retained inside the nucleus. Total DNA content was stained by DAPI and detected using the NucleoCounter® NC-3000™. Here, cells typically fall into one of three clusters when plotted by signal intensity. The G1 peak represents the majority of cells with 2n DNA content. A second, smaller peak represents cells in G2 phase of the cell cycle, containing 4n. […]
as §4

HEK293 cells [3] = test: Encapsidated host cell DNA in AAV particles, ALU qPCR, HEK293 cells; conditions: up to 40 μg/ml, compared to untreated controls, transient transfection
Procedure: as §1, §2, §3
AAV samples were treated with Turbo DNAse (Thermo Fischer Scientific) to digest the non-encapsidated DNA before the capsids were digested using Proteinase K. Proteinase K was inactivated by a heating step at 95° C. for 15 min. The samples were measured either by qPCR or ddPCR as follows: […]

HEK293 cells [4] = test: Endpoint PCR for detection of encapsidated hcDNA; conditions: transiently transfected HEK293 wt cells, cargo 1 or cargo 3
Procedure: Encapsidated hcDNA was prepared as described. PCR setup involved 3 μl sample as template for an endpoint PCR with 40 cylces using Q5 High-Fidelity DNA polymerase (NEB) according to the manufacturer's instructions. PCR samples were analyzed on a 2% agarose gel.

stable producer cells = test: Capsid levels by ELISA; conditions: in the presence of Z-VAD-fmk
Procedure: Inhibition of apoptotic DNA fragmentation reduces amount and packaging of hcDNA. • a) First page: sensitivity test for Sub-G1 DNA-fragmentation assay (Chemometec) using Camptothecin treatment (10 μM) on parental CAP cells over night. M1 population as % of global DNA stain. Second page: merged curves for apoptotic DNA fragmentation determined by same assay after 0 h (black curve), 18 h (dark grey), and 44 h (light grey), with Z-VAD-fmk (right) and in control samples (left, induction only) • b) First page: Relative share of encapsidated hcDNA [%] in transient and stable AAV8 production at 3 days post induction (transient transfection) and 5 days post induction (stable clone). […] Encapsidated hcDNA was measured in relation to the respective untreated controls, each set at 100%. Second page: fold difference of hcDNA concentration over time [hours] in an untreated AAV production using stable producer clone 1 (light grey line) normalized to 10 μg/ml of Z-VAD-fmk (dark grey line) determined by ALU qPCR. • c) First page: Relative Capsid levels determined by ELISA in stable producer clone 1 and transiently transfected HEK293 suspension cells at different Z-VAD-fmk concentrations and compared with Camptothecin. […] Second page: corresponding host cell DNA per capsid as determined by ALU qPCR normalized to untreated controls. […]

## C[S+]([O-])c1ccc(-c2nc(-c3ccc(F)cc3)c(-c3ccncc3)[nH]2)cc1 (centres unmarked) [Adezmapimod, 4-(4-fluorophenyl)-2-(4-methylsulfinylphenyl)-5-(4-pyridyl)-1H-imidazole]
CAP cells [1]; stable inducible AAV producer cells, day 3 post induction
  encapsidated hcDNA: reduced hcDNA encapsidation
CAP cells [1]; stable inducible AAV producer cells, day 3 post induction, listed as SB 203580
  encapsidated hcDNA: reduces the encapsidated hcDNA
CAP cells [1]; 60 μM, stable inducible AAV producer cells, compared to vehicle treated controls, day 3 post induction
  reduction of encapsidated hcDNA: more than 75%

## CC[C@@]1(O)C(=O)OCc2c1cc1n(c2=O)Cc2cc3ccccc3nc2-1 [Camptothecin]
CAP cell line
  viable cell density and viability: reduced viability and VCD
CAP cells [2]
  amount of low molecular weight DNA (short DNA fragments): increase in short DNA fragments

## Z-Val-Ala-Asp fluoromethyl ketone [Z-VAD-fmk]
HEK293 cells [3]
  packaging of host cell DNA: dramatically decreased packaging of host cell DNA
HEK293 cells [4]
  encapsidated hcDNA (genomic DNA sequence from HEK293 cells): undetectable
CAP cell line; 80 h of treatment with 10 μg/ml, compared to untreated cells
  increase in viability: ~10 percentage points
CAP cell line; co-culturing, 10 μM Camptothecin+20 μM Z-VAD-fmk
  compensation of Camptothecin-reduced viability and VCD: could be compensated
CAP cell line
  viable cell density and viability: increased viable cell density and viability
Stable producer cells
  capsid levels (ELISA): slightly increased
CAP cells [1]; stable producer cells, compared to controls
  reduction in encapsidated hcDNA normalized to capsid levels: ~10 fold
CAP cells [1]; up to 40 μg/ml, compared to untreated controls, fully transient approach and full producers
  packaging of host cell DNA: dramatically decreased packaging of host cell DNA
CAP cells [2]
  amount of low molecular weight DNA (short DNA fragments): reduced the amount of low molecular weight DNA
